The term inhibition denotes how much of the control response was suppressed.

For experiment [1], the target named is T1, human recombinant type II PLA2 (synovial PLA2) (Homo sapiens, UniProt P14555).
T1 sequence (P14555 21-144): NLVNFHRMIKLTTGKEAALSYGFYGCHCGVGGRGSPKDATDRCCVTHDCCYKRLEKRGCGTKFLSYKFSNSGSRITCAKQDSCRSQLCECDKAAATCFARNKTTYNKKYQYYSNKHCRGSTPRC
In words: Inhibition of the human recombinant type II PLA2 (synovial PLA2), in vitro. The class given is biochemical. The source says:
a) Inhibition of the human recombinant type II PLA2) (=synovial PLA2)
As typical respresentative of A PLA2, there was selected for the testing the synovial PLA2 (dissertation of Rainer Muller, 1993; University of Regensburg).
As representative of the compounds I or Ia, respectively, there was investigated in more detail the compound from Example 1. In the following Table, there is given dosage-dependent the percentage in vitro inhibition of PLA2.

Experiment [2] has as its system collagen-induced arachidonic acid (AA) liberation from human thrombocytes. In words: Inhibition of the collagen-induced arachidonic acid (AA) liberation from human thrombocytes (3H-AA). The class given is cell-based. As to the method:
b) Inhibition of the collagen-induced arachidonic acid
(AA) liberation from human thrombocytes
As further indicator of a PLA2 inhibition, there is valid an inhibition of the AA liberation from thrombocytes. For this purpose, the thrombocytes are equilibrated with ^3 H-AA. This added radioactive arachidonic acid incorporates into membrane phospholipids. Subsequently, the thrombocytary PLA2 is activated via the collagen receptor and ^3 H-AA thus again liberated from the membrane phospholipids into the medium where it can be measured.

Consider `Nc1nc2ccccc2[n+]([O-])n1` [Example 1, 1,2,4-Benzotriazine-3-amine 1-oxide], for which the inhibition at 1 µg/mL in experiment [1] (1 μg/ml) came to 43%. Besides, the inhibition at 10 µg/mL was 60% in experiment [1] (10 μg/ml) and 29% in experiment [2] (10 μg/ml, collagen-induced, human thrombocytes). Also, the inhibition at 100 µg/mL is 99% in experiment [1] (100 μg/ml) and 91% in experiment [2] (100 μg/ml, collagen-induced, human thrombocytes). Besides, the “inhibition of the collagen-induced AA liberation, maximum” value in experiment [2] (dosage-dependent) is given as “up to 91%”.

The record behind these values is patent US5856325A, “Benzotriazines, pharmaceutical compositions, and methods of using same” (Boehringer Mannheim GmbH, priority 1992, dated 1999).
